In brackets after ≈: the same amount, converted by molar mass. Like-named read-outs stand apart in the source and are kept apart here.
What was measured:
Candida lusitaniae [1] = experiment: MIC by broth microdilution (CLSI M27-A3); type: cell-based; settings: CL3, […]10^5 cells/mL, 30°C, OD600 48 h
Candida albicans = experiment: Minimum fungicidal concentration (MFC), plating after MIC assay; type: cell-based; settings: […]10^5 cells/mL
Candida lusitaniae [2] = experiment: as above; type: cell-based; settings: C. Lusitania (CL3), Sensitive; RPMI 1640 (0.2% Glucose); […]10^5 cells/mL; 30° C.
Cryptococcus neoformans [3] = experiment: MIC by broth microdilution (CLSI M27-A3); type: cell-based; settings: […]10^3 cells/mL
Cryptococcus gattii [4] = experiment: MIC by broth microdilution (CLSI M27-A3); type: cell-based; settings: […]10^3 cells/mL
Cryptococcus neoformans [5] = experiment: Minimum fungicidal concentration (MFC), plating after MIC assay; type: cell-based; settings: RPMI 1640 (0.2% Glucose), […]10^3 cells/mL, 37° C.
Cryptococcus gattii [6] = experiment: as above; type: cell-based; settings: Sensitive, RPMI 1640 (0.2% Glucose), […]10^3 cells/mL, 37° C.
Candida spp. = experiment: MIC and MFC by broth microdilution, summary over Candida strains; type: cell-based; settings: Candida test strains, except resistant strain E4
Cryptococcus spp. = experiment: MIC and MFC by broth microdilution, summary over Cryptococcus strains; type: cell-based
RAW 264.7 macrophages = experiment: In vitro cytotoxicity (CytoTox-ONE, LDH release); settings: 12 hours

C[C@@H]1[C@H](O)[C@@H](C)/C=C/C=C/C=C/C=C/C=C/C=C/C=C/[C@H](O[C@@H]2O[C@H](C)[C@@H](O)[C@H](N)[C@@H]2O)C[C@@H]2O[C@](O)(C[C@@H](O)C[C@@H](O)[C@H](O)CC[C@@H](O)C[C@@H](O)CC(=O)O[C@H]1C)C[C@H](O)[C@H]2C(=O)O [AMB, amphotericin B]
MIC (Candida lusitaniae [1]; trial 1): 0.4 µg/mL | MIC (Candida lusitaniae [1]; trial 1, read-out: MIC): 0.4 µM | MIC (Candida lusitaniae [1]; trial 2): 0.4 µg/mL | MFC (Candida albicans; C. albicans (E4), Amp B Resistant, RPMI 1640 (0.2% Glucose), 30° C.): 12.5 µg/mL | MFC (Candida albicans; C. albicans (Gu5), Fluconazole Resistant, RPMI 1640 (0.2% Glucose), 30° C.): 1.56 µg/mL | MFC (Candida albicans; C. albicans (K1), Fluconazole Resistant, RPMI 1640 (0.2% Glucose), 30° C.): 3.13 µg/mL | MFC (Candida albicans; C. albicans (SCG5314), Sensitive, RPMI 1640 (0.2% Glucose), 30° C.): 1.56 µg/mL | MFC (Candida albicans; E4, 30°C, avg.): 12.5 µg/mL | MFC (Candida albicans; E4, 30°C, avg., read-out: MFC): 13.5 µM | MFC (Candida albicans; E4, 30°C, trial 1): 12.5 µg/mL | MFC (Candida albicans; E4, 30°C, trial 1, read-out: MFC): 13.5 µM | MFC (Candida albicans; E4, 30°C, trial 2): 12.5 µg/mL | MFC (Candida albicans; E4, 30°C, trial 2, read-out: MFC): 13.5 µM | MFC (Candida albicans; Gu5, 30°C, avg.): 1.6 µg/mL | MFC (Candida albicans; Gu5, 30°C, avg., read-out: MFC): 1.7 µM | MFC (Candida albicans; Gu5, 30°C, trial 1): 1.6 µg/mL | MFC (Candida albicans; Gu5, 30°C, trial 1, read-out: MFC): 1.7 µM | MFC (Candida albicans; Gu5, 30°C, trial 2): 1.6 µg/mL | MFC (Candida albicans; Gu5, 30°C, trial 2, read-out: MFC): 1.7 µM | MFC (Candida albicans; K1, 30°C, avg.): 3.1 µg/mL | MFC (Candida albicans; K1, 30°C, avg., read-out: MFC): 3.4 µM | MFC (Candida albicans; K1, 30°C, trial 1): 3.1 µg/mL | MFC (Candida albicans; K1, 30°C, trial 1, read-out: MFC): 3.4 µM | MFC (Candida albicans; K1, 30°C, trial 2): 3.1 µg/mL | MFC (Candida albicans; K1, 30°C, trial 2, read-out: MFC): 3.4 µM | MFC (Candida albicans; SC5314, 30°C, avg.): 1.6 µg/mL | MFC (Candida albicans; SC5314, 30°C, avg., read-out: MFC): 1.7 µM | MFC (Candida albicans; SC5314, 30°C, trial 1): 1.6 µg/mL | MFC (Candida albicans; SC5314, 30°C, trial 1, read-out: MFC): 1.7 µM | MFC (Candida albicans; SC5314, 30°C, trial 2): 1.6 µg/mL | MFC (Candida albicans; SC5314, 30°C, trial 2, read-out: MFC): 1.7 µM | MFC (Candida lusitaniae [2]): 1.56 µg/mL (≈ 1.69 µM) | MIC (Cryptococcus neoformans [3]; B3501, 30°C, […]): 0.8 µg/mL | MIC (Cryptococcus neoformans [3]; B3501, 30°C, […], Table 15): 0.9 µM | MIC (Cryptococcus neoformans [3]; C21F3, 30°C, OD600 48 h): 0.8 µg/mL | MIC (Cryptococcus neoformans [3]; C21F3, 30°C, OD600 48 h, Table 15): 0.9 µM | MIC (Cryptococcus neoformans [3]; C. neoformans (B3501), Sensitive, RPMI 1640 (0.2% Glucose), 37° C.): 0.8 µg/mL | MIC (Cryptococcus neoformans [3]; C. neoformans (B3501), 30°C): 0.9 µM | MIC (Cryptococcus neoformans [3]; C. neoformans (C21F3), 30°C): 0.9 µM | MIC (Cryptococcus neoformans [3]; C. neoformans (H99), Sensitive, RPMI 1640 (0.2% Glucose), 37° C.): 1.6 µg/mL | MIC (Cryptococcus neoformans [3]; C. neoformans (H99), 30°C): 1.7 µM | MIC (Cryptococcus neoformans [3]; C. neoformans (JEC21), Sensitive, RPMI 1640 (0.2% Glucose), 37° C.): 0.2 µg/mL | MIC (Cryptococcus neoformans [3]; C. neoformans (JEC21), 30°C): 0.2 µM | MIC (Cryptococcus neoformans [3]; H99, 30°C, OD600 48 h): 1.6 µg/mL | MIC (Cryptococcus neoformans [3]; H99, 30°C, OD600 48 h, Table 15): 1.7 µM | MIC (Cryptococcus neoformans [3]; JEC21, 30°C, OD600 48 h): 0.2 µg/mL | MIC (Cryptococcus neoformans [3]; JEC21, 30°C, OD600 48 h, Table 15): 0.2 µM | MIC (Cryptococcus neoformans [3]; […], RPMI 1640 (0.2% Glucose), 37° C.): 0.8 µg/mL | MIC (Cryptococcus gattii [4]; C751, 30°C, OD600 48 h): ≤0.2 µg/mL | MIC (Cryptococcus gattii [4]; C751, 30°C, OD600 48 h, Table 15, read-out: MIC): ≤0.2 µM | MIC (Cryptococcus gattii [4]; C. gattii (C751), Sensitive, RPMI 1640 (0.2% Glucose), 37° C.): ≤0.2 µg/mL | MIC (Cryptococcus gattii [4]; C. gattii (C751), 30°C, read-out: MIC): ≤0.2 µM | MIC (Cryptococcus gattii [4]; C. gattii (WM275), Sensitive, RPMI 1640 (0.2% Glucose), 37° C.): 0.8 µg/mL | MIC (Cryptococcus gattii [4]; C. gattii (WM276), 30°C, read-out: MIC): 0.9 µM | MIC (Cryptococcus gattii [4]; WM276, 30°C, OD600 48 h): 0.8 µg/mL | MIC (Cryptococcus gattii [4]; WM276, 30°C, OD600 48 h, Table 15, read-out: MIC): 0.9 µM | MFC (Cryptococcus neoformans [5]; C. neoformans (B3501), Sensitive): 0.8 µg/mL (≈ 0.866 µM) | MFC (Cryptococcus neoformans [5]; C. neoformans (C21F3), Rapamycin Resistant): 0.8 µg/mL (≈ 0.866 µM) | MFC (Cryptococcus neoformans [5]; C. neoformans (H99), Sensitive): 1.6 µg/mL (≈ 1.73 µM) | MFC (Cryptococcus neoformans [5]; C. neoformans (JEC21), Sensitive): 0.4 µg/mL (≈ 0.433 µM) | MFC (Cryptococcus gattii [6]; C. gattii (C751)): 0.8 µg/mL (≈ 0.866 µM) | MFC (Cryptococcus gattii [6]; C. gattii (WM275)): 3.1 µg/mL (≈ 3.35 µM) | MIC and MFC values (Candida spp.): sub-μM | MIC (Cryptococcus spp.; Cryptococcus test strains): ~1 µM (≈ 0.924 µg/mL) | MFC (Cryptococcus spp.; Cryptococcus test strains (FLC: all strains except C21F3)): ~1 µM (≈ 0.924 µg/mL) | cell death at the highest concentration tested (RAW 264.7 macrophages): less than 50% | concentration causing 10% cell death (IC10) (RAW 264.7 macrophages): 108 µM

From patent US20180185408A1, “ANTIFUNGAL NYLON-3 POLYMERS AND COMBINATION THERAPY USING THEM TO TREAT FUNGAL INFECTIONS” (priority 2016, published 2018)
